Assay results taken from patent publication US20240368135A1 (VERTEX PHARMACEUTICALS INCORPORATED, priority 2021, published 2024).

Target: human NaV 1.8 (Homo sapiens, UniProt Q9Y5Y9)
Test: E-VIPR assay detecting and measuring NaV inhibition properties
Format: cell-based
Conditions: HEK cells expressing truncated human NaV 1.8; no human serum; read-out: IC50 in the E-VIPR Assay
Procedure, shortened: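 Membrane potential was followed by coumarin/oxonol FRET during electrical field stimulation of matrigel-seeded HEK cells carrying truncated human NaV1.8 plus KIR2.1. Dosing used 11 points, 3-fold steps, top 300 nM final, 0.625% DMSO, with or without 25% human serum.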

Chain of human NaV 1.8 (Q9Y5Y9 126-399 limits assumed): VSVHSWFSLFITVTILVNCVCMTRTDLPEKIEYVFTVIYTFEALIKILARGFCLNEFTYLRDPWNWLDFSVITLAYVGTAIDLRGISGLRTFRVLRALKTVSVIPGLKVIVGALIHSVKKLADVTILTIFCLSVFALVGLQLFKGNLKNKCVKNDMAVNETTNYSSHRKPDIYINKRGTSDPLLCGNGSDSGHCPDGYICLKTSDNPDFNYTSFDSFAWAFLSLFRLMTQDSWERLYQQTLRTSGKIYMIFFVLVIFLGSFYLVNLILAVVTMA
Chain of human NaV 1.8 (Q9Y5Y9 660-890 limits assumed): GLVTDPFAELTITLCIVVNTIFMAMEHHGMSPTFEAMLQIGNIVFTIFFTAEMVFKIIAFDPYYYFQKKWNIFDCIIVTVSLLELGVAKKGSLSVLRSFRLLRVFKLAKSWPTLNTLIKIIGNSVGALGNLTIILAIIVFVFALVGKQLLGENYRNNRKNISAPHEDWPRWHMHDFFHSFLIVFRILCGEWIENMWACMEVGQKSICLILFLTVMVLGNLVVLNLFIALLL
Chain of human NaV 1.8 (Q9Y5Y9 1148-1722 limits assumed): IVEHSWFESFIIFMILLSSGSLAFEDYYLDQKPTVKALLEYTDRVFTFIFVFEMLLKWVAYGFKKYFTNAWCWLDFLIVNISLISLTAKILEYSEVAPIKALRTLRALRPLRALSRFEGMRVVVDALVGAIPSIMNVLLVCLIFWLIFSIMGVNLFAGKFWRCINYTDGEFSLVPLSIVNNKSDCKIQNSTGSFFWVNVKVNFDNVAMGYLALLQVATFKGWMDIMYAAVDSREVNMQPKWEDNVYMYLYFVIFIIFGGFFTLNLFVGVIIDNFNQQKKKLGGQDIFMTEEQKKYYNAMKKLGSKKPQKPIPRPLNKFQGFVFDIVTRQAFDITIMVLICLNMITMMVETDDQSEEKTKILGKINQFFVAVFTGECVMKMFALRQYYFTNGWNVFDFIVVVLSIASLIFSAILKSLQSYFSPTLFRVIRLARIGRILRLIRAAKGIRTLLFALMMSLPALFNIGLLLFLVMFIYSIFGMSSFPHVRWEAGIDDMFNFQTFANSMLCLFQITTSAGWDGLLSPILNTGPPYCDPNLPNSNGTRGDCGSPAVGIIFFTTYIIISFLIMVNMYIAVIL

IC50 [µM] | SMILES
0.1 to 1 | COc1c([C@H]2[C@H](C(=O)Nc3ccc(CC4CCOC4)nc3)O[C@@](C)(C(F)(F)F)[C@H]2C)ccc(F)c1F (stereo partly drawn) [Compound 392, (2R,3S,4S,5R)-3-(3,4-difluoro-2-methoxyphenyl)-4,5-dimethyl-N-(6-((tetrahydrofuran-3-yl)methyl)pyridin-3-yl)-5-(trifluoromethyl)-tetrahydrofuran-2-carboxamide]
0.1 to 1 | COc1c([C@H]2[C@H](C(=O)Nc3ccc(-c4nc(C)no4)nc3)O[C@@](C)(C(F)(F)F)[C@H]2C)ccc(F)c1F [Compound 393, (2R,3S,4S,5R)-3-(3,4-difluoro-2-methoxyphenyl)-4,5-dimethyl-N-(6-(3-methyl-1,2,4-oxadiazol-5-yl)pyridin-3-yl)-5-(trifluoromethyl)-tetrahydrofuran-2-carboxamide]
0.1 to 1 | COc1c([C@H]2[C@H](C(=O)Nc3ccc(-c4cnco4)nc3)O[C@@](C)(C(F)(F)F)[C@H]2C)ccc(F)c1F [Compound 394, (2R,3S,4S,5R)-3-(3,4-difluoro-2-methoxyphenyl)-4,5-dimethyl-N-(6-(oxazol-5-yl)pyridin-3-yl)-5-(trifluoromethyl)-tetrahydrofuran-2-carboxamide]
0.01 to 0.1 | COc1c([C@H]2[C@H](C(=O)Nc3ccc(-n4ccc(C)n4)nc3)O[C@@](C)(C(F)(F)F)[C@H]2C)ccc(F)c1F [Compound 395, (2R,3S,4S,5R)-3-(3,4-difluoro-2-methoxyphenyl)-4,5-dimethyl-N-(6-(3-methyl-1H-pyrazol-1-yl)pyridin-3-yl)-5-(trifluoromethyl)-tetrahydrofuran-2-carboxamide]
≥ 1 | COc1c([C@H]2[C@H](C(=O)Nc3ccc(-c4ccccn4)nc3)O[C@@](C)(C(F)(F)F)[C@H]2C)ccc(F)c1F [Compound 396, (2R,3S,4S,5R)-N-([2,2′-bipyridin]-5-yl)-3-(3,4-difluoro-2-methoxyphenyl)-4,5-dimethyl-5-(trifluoromethyl)-tetrahydrofuran-2-carboxamide]
0.1 to 1 | COc1c([C@H]2[C@H](C(=O)Nc3ccc(-c4nncn4C)nc3)O[C@@](C)(C(F)(F)F)[C@H]2C)ccc(F)c1F [Compound 397, (2R,3S,4S,5R)-3-(3,4-difluoro-2-methoxyphenyl)-4,5-dimethyl-N-(6-(4-methyl-4H-1,2,4-triazol-3-yl)pyridin-3-yl)-5-(trifluoromethyl)-tetrahydrofuran-2-carboxamide]
0.01 to 0.1 | COc1c([C@H]2[C@H](C(=O)Nc3ccc(-c4nnc(C)o4)nc3)O[C@@](C)(C(F)(F)F)[C@H]2C)ccc(F)c1F [Compound 398, (2R,3S,4S,5R)-3-(3,4-difluoro-2-methoxyphenyl)-4,5-dimethyl-N-(6-(5-methyl-1,3,4-oxadiazol-2-yl)pyridin-3-yl)-5-(trifluoromethyl)-tetrahydrofuran-2-carboxamide]
0.01 to 0.1 | COc1c([C@H]2[C@H](C(=O)Nc3ccc(-c4ncco4)nc3)O[C@@](C)(C(F)(F)F)[C@H]2C)ccc(F)c1F [Compound 399, (2R,3S,4S,5R)-3-(3,4-difluoro-2-methoxyphenyl)-4,5-dimethyl-N-(6-(oxazol-2-yl)pyridin-3-yl)-5-(trifluoromethyl)-tetrahydrofuran-2-carboxamide]
0.1 to 1 | COc1c([C@H]2[C@H](C(=O)Nc3ccc(-c4ccn(C)n4)nc3)O[C@@](C)(C(F)(F)F)[C@H]2C)ccc(F)c1F [Compound 400, (2R,3S,4S,5R)-3-(3,4-difluoro-2-methoxyphenyl)-4,5-dimethyl-N-(6-(1-methyl-1H-pyrazol-3-yl)pyridin-3-yl)-5-(trifluoromethyl)-tetrahydrofuran-2-carboxamide]
0.01 to 0.1 | COc1c([C@H]2[C@H](C(=O)Nc3ccc(-n4ccnc4)nc3)O[C@@](C)(C(F)(F)F)[C@H]2C)ccc(F)c1F [Compound 401, (2R,3S,4S,5R)-N-(6-(1H-imidazol-1-yl)pyridin-3-yl)-3-(3,4-difluoro-2-methoxyphenyl)-4,5-dimethyl-5-(trifluoromethyl)-tetrahydrofuran-2-carboxamide]
0.01 to 0.1 | COc1c([C@H]2[C@H](C(=O)Nc3ccc(-n4cncn4)nc3)O[C@@](C)(C(F)(F)F)[C@H]2C)ccc(F)c1F [Compound 402, (2R,3S,4S,5R)-N-(6-(1H-1,2,4-triazol-1-yl)pyridin-3-yl)-3-(3,4-difluoro-2-methoxyphenyl)-4,5-dimethyl-5-(trifluoromethyl)-tetrahydrofuran-2-carboxamide]
0.01 to 0.1 | COc1c([C@H]2[C@H](C(=O)Nc3ccc(C#CCO)nc3)O[C@@](C)(C(F)(F)F)[C@H]2C)ccc(F)c1F [Compound 403, (2R,3S,4S,5R)-3-(3,4-difluoro-2-methoxyphenyl)-N-(6-(3-hydroxyprop-1-yn-1-yl)pyridin-3-yl)-4,5-dimethyl-5-(trifluoromethyl)-tetrahydrofuran-2-carboxamide]
0.1 to 1 | COc1c([C@H]2[C@H](C(=O)Nc3ccc(CC4CCOCC4)nc3)O[C@@](C)(C(F)(F)F)[C@H]2C)ccc(F)c1F [Compound 404, (2R,3S,4S,5R)-3-(3,4-difluoro-2-methoxyphenyl)-4,5-dimethyl-N-(6-((tetrahydro-2H-pyran-4-yl)methyl)pyridin-3-yl)-5-(trifluoromethyl)-tetrahydrofuran-2-carboxamide]
0.01 to 0.1 | COc1c([C@H]2[C@H](C(=O)Nc3ccnc(CC(C)(C)O)c3)O[C@@](C)(C(F)(F)F)[C@H]2C)ccc(F)c1F [Compound 405, (2R,3S,4S,5R)-3-(3,4-difluoro-2-methoxy-phenyl)-N-[2-(2-hydroxy-2-methyl-propyl)-4-pyridyl]-4,5-dimethyl-5-(trifluoromethyl)tetrahydrofuran-2-carboxamide]
0.01 to 0.1 | COCC(C)(C)NCc1cc(NC(=O)[C@@H]2O[C@@](C)(C(F)(F)F)[C@@H](C)[C@H]2c2ccc(F)c(F)c2OC)ccn1 [Compound 410, (2R,3S,4S,5R)-3-(3,4-difluoro-2-methoxyphenyl)-N-(2-(((1-methoxy-2-methylpropan-2-yl)amino)methyl)-pyridin-4-yl)-4,5-dimethyl-5-(trifluoromethyl)-tetrahydrofuran-2-carboxamide]
< 0.01 | COc1c([C@H]2[C@H](C(=O)Nc3ccnc(N4CCNCC4=O)c3)O[C@@](C)(C(F)(F)F)[C@H]2C)ccc(F)c1F [Compound 411, (2R,3S,4S,5R)-3-(3,4-difluoro-2-methoxyphenyl)-4,5-dimethyl-N-(2-(2-oxopiperazin-1-yl)pyridin-4-yl)-5-(trifluoromethyl)-tetrahydrofuran-2-carboxamide]
0.01 to 0.1 | COc1c([C@H]2[C@H](C(=O)Nc3ccn4c(=O)n(CCO)nc4c3)O[C@@](C)(C(F)(F)F)[C@H]2C)ccc(F)c1F [Compound 430, (2R,3S,4S,5R)-3-(3,4-difluoro-2-methoxy-phenyl)-N-[2-(2-hydroxyethyl)-3-oxo-[1,2,4]triazolo[4,3-a]pyridin-7-yl]-4,5-dimethyl-5-(trifluoromethyl)tetrahydrofuran-2-carboxamide]
0.1 to 1 | COc1c([C@H]2[C@H](C(=O)Nc3ncc(O)cn3)O[C@@](C)(C(F)(F)F)[C@H]2C)ccc(F)c1F [Compound 444, (2R,3S,4S,5R)-3-(3,4-difluoro-2-methoxy-phenyl)-N-(5-hydroxypyrimidin-2-yl)-4,5-dimethyl-5-(trifluoromethyl)tetrahydrofuran-2-carboxamide]
≥ 1 | COc1c([C@H]2[C@H](C(=O)Nc3cnc(CCO)n3C)O[C@@](C)(C(F)(F)F)[C@H]2C)ccc(F)c1F [Compound 445, (2R,3S,4S,5R)-3-(3,4-difluoro-2-methoxyphenyl)-N-(2-(2-hydroxyethyl)-1-methyl-1H-imidazol-5-yl)-4,5-dimethyl-5-(trifluoromethyl)tetrahydrofuran-2-carboxamide]
0.01 to 0.1 | COc1c([C@H]2[C@H](C(=O)Nc3cnc(C(F)CO)nc3)O[C@@](C)(C(F)(F)F)[C@H]2C)ccc(F)c1F (stereo partly drawn) [Compound 446, (2R,3S,4S,5R)-3-(3,4-difluoro-2-methoxy-phenyl)-N-[2-(1-fluoro-2-hydroxy-ethyl)pyrimidin-5-yl]-4,5-dimethyl-5-(trifluoromethyl)tetrahydrofuran-2-carboxamide]
0.01 to 0.1 | COc1c([C@H]2[C@H](C(=O)Nc3cnc(C)n3C)O[C@@](C)(C(F)(F)F)[C@H]2C)ccc(F)c1F [Compound 447, (2R,3S,4S,5R)-3-(3,4-difluoro-2-methoxy-phenyl)-N-(2,3-dimethylimidazol-4-yl)-4,5-dimethyl-5-(trifluoromethyl)tetrahydrofuran-2-carboxamide]
< 0.01 | COc1c([C@H]2[C@H](C(=O)Nc3ccnc(N4C(=O)CN(C)C[C@H]4C)c3)O[C@@](C)(C(F)(F)F)[C@H]2C)ccc(F)c1F [Compound 465, (2R,3S,4S,5R)-3-(3,4-difluoro-2-methoxyphenyl)-N-(2-((R)-2,4-dimethyl-6-oxopiperazin-1-yl)pyridin-4-yl)-4,5-dimethyl-5-(trifluoromethyl)tetrahydrofuran-2-carboxamide]
0.01 to 0.1 | COc1c([C@H]2[C@H](C(=O)Nc3ccnc(N4CCN(C)CCC4=O)c3)O[C@@](C)(C(F)(F)F)[C@H]2C)ccc(F)c1F [Compound 466, (2R,3S,4S,5R)-3-(3,4-difluoro-2-methoxyphenyl)-4,5-dimethyl-N-(2-(4-methyl-7-oxo-1,4-diazepan-1-yl)pyridin-4-yl)-5-(trifluoromethyl)tetrahydrofuran-2-carboxamide]
0.01 to 0.1 | COc1c([C@H]2[C@H](C(=O)Nc3ccnc(N4CCCN(C)CC4=O)c3)O[C@@](C)(C(F)(F)F)[C@H]2C)ccc(F)c1F [Compound 467, (2R,3S,4S,5R)-3-(3,4-difluoro-2-methoxyphenyl)-4,5-dimethyl-N-(2-(4-methyl-2-oxo-1,4-diazepan-1-yl)pyridin-4-yl)-5-(trifluoromethyl)tetrahydrofuran-2-carboxamide]
